Several values for one entry are separate records, joined by “and”; a condition that tells them apart may be missing. Identical values can stand only once. Like-named read-outs stand apart in the source and are kept apart here. Blank lines part the entries; values can stand above or below the substance they belong to.
Tests used:
[1] = cited from earlier work
[2] = [3H]IP3-binding activity, Scatchard plot analysis
Protocol: The IP3-binding activities of these fusion proteins were measured mainly by the method of Yoshikawa et al (1996).
Each fusion protein (IP3 sponge) (0.2 μg) was mixed with 100 μl of binding buffer-α (50 mM Tris-HCl (pH 8.0 at 4° C.), 1 mM EDTA, 1 mM β-mercaptoethanol) that contained 9.6 nM D-myo-[^3H](1,4,5)IP3 (777 GBq/mmol; DuPont NEN) (hereinafter, abbreviated as “[^3H]IP3”) and various concentrations of non-labeled D-myo-(1,4,5)IP3 (Dojindo) (hereinafter, abbreviated as “cold IP3”). The mixture was left to stand on ice for 10 minutes. To the mixture, 4 μl of 50 mg/ml γ-globulin (Sigma) (final concentration: 1 mg/ml) and 100 μl of 30% PEG 6000 (Sigma)/binding buffer-a solution (final concentration: 15%) were added. The resultant mixture was left to stand on ice for 5 minutes, and then centrifuged at 10,000×g at 2° C. for 5 minutes to collect polypeptide/PEG complex. PEG-precipitated [^3H]IP3-binding polypeptide was well solubilized with 180 μl solubilizer Solvable (DuPont NEN). The resultant was neutralized with 18 μl glacial acetic acid and then added to 5 ml liquid scintillation counter (Atomlight [DuPont NEN]) to measure the radioactivity (first radioactivity). Non-specific binding of each protein was determined by measuring the second radioactivity in the presence of 2 μM or 10 μM cold IP3. Then, a specific binding value of each protein was obtained by subtracting the second radioactivity (non-specific binding value) from the first radioactivity values.
Scatchard plot analysis was conducted under the following conditions. For low-affinity polypetides (G224-m30 and control GST), the binding experiment was conducted in 100 μl binding buffer a by adding 9.6 nM [^3H]IP3 (DuPont NEN) and 10–20 nM of cold IP3 to 2 μg of IP3-binding polypeptide, and by adding 9.6 nM [^3H]IP3 (DuPont NEN) and 50 nM-2 μM of cold IP3 to 0.01 μg IP3-binding polypeptide. For high-affinity IP3 sponges (G224 and G224-m49), binding experiment was conducted with 0.02 μg IP3 sponges at [^3H]-IP3 concentrations of 0.15, 0.3, 0.6, 1.2, 2.4, 4.8 and 9.6 nM without adding cold IP3.

[3] = biological target: T1, IP3 receptor of cerebellar microsome (Mus musculus, UniProt P11881); assay: Inhibition of [3H]IP3 binding of cerebellar microsome by IP3 sponges; conditions: 40 μg cerebellar microsome, 9.6 nM [3H]IP3, 100 μl (FIG. 4)
T1 construct: Mouse cerebellum is a tissue that is rich in IP3 receptor; from tissue; host or cells: mouse (ddY) cerebellum, microsomal fraction
Protocol: The inhibition effects of the IP3-binding polypeptides (IP3 sponges) on [H]IP3-binding activity of cerebellar microsome was analyzed as follows.
A microsomal fraction was prepared from the cerebella of mice ddY (Nippon SLC) mainly by following the method of Nakada et al. (Nakada S. et al., Biochem. J. 277:125–131, 1991). In 100 μl of binding buffer α, various concentrations of the IP3 sponges were added respectively to see the changes in the binding between the cerebellar microsome (40 μg) and 9.6 nM [^3H]-IP3 according to the above method (see Scatchard plot analysis).
Mouse cerebellum is a tissue that is rich in IP3 receptor and whose microsomal fraction has a [^3H]IP3-binding activity which is at least 50 times higher than those in other tissues (Maeda et al., 1990 (supra)). […] It was calculated that, there were about 0.92 pmol of IP3-binding site of cerebellum IP3 receptor and 0.96 pmol of [^3H]IP3 present in the 100 μl solution.

[4] = biological target: T2, IP3 receptor on cerebellar microsome (Mus musculus, UniProt P11881); assay: Inhibition of IP3-induced Ca2+ release (IICR) from cerebellar microsome, fura-2; format: biochemical
T2 construct: Mouse cerebellum is a tissue that is rich in IP3 receptor; from tissue; host or cells: mouse (ddY) cerebellum, microsomal fraction
T2 sequence (P11881 whole entry N1264K/P2675L): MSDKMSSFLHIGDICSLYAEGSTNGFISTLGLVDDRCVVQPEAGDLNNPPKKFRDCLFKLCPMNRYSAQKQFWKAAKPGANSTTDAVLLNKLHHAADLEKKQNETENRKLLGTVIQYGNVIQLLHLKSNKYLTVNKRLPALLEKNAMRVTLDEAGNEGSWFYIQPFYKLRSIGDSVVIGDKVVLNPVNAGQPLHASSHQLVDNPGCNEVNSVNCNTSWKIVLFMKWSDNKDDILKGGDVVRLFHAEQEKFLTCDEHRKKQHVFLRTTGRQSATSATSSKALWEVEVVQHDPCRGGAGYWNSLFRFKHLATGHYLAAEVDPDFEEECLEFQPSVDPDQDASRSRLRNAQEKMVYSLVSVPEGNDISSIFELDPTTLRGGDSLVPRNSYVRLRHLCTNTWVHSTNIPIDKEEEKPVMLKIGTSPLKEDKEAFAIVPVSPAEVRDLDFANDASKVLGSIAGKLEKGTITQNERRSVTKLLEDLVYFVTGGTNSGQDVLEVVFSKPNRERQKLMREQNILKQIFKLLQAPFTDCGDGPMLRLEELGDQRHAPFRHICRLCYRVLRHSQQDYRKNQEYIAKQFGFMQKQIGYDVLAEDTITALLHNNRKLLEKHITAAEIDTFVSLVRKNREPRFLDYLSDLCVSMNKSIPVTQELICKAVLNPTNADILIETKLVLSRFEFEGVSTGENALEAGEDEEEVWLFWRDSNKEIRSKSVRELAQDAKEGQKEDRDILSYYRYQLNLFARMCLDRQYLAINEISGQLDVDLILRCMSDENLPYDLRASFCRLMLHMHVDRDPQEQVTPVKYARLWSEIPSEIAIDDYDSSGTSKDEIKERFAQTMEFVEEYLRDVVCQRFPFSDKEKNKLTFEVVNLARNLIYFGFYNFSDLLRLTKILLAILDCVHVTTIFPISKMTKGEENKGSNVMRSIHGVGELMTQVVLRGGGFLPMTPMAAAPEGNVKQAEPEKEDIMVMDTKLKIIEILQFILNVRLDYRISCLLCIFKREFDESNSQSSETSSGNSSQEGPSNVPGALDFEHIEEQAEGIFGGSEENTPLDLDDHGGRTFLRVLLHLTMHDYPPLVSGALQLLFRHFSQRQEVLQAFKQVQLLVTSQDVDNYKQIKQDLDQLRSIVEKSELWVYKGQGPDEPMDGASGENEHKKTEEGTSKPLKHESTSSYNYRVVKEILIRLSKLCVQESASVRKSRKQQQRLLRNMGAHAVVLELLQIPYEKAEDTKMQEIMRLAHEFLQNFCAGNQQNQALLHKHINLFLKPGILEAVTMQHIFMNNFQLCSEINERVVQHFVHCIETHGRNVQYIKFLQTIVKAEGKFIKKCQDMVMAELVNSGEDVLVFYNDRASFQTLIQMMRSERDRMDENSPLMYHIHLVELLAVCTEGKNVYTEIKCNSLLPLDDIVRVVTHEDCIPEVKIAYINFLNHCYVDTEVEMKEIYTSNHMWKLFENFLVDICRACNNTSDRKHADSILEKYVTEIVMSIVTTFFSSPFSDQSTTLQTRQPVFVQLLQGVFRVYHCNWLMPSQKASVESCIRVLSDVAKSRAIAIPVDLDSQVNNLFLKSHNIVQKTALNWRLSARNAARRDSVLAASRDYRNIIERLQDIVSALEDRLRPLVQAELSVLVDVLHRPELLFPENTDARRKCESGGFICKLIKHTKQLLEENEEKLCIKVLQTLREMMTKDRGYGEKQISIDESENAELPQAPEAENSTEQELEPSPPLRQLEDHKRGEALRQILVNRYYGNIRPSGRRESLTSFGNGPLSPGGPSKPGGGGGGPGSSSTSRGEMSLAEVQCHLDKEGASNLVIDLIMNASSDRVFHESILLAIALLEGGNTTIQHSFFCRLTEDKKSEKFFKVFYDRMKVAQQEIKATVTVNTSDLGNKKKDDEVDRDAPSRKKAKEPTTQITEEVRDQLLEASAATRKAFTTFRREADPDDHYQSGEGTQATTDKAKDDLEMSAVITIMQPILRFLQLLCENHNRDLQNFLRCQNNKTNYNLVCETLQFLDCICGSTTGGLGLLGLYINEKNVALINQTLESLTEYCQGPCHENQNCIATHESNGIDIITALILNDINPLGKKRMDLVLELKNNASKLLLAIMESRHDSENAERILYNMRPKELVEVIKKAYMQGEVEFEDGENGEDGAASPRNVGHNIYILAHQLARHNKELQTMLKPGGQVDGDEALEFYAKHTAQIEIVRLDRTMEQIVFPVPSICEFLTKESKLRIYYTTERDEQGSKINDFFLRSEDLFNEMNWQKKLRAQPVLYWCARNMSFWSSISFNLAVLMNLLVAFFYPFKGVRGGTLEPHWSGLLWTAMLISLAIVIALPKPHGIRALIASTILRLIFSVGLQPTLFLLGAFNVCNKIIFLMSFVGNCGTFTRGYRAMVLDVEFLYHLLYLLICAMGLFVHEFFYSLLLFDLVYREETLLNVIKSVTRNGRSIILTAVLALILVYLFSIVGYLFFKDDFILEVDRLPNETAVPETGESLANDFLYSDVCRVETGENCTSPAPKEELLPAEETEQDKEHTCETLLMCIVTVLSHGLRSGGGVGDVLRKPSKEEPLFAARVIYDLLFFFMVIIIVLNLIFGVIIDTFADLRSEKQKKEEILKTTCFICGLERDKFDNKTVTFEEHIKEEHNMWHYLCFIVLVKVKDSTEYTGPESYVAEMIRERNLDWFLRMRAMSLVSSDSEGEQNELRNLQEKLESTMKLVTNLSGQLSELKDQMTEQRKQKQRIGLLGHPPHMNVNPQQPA
Protocol: To conduct a test of inhibiting IP3-induced Ca^2+ release, a microsomal fraction was prepared from mouse cerebellum as described in Example 3. The fraction was suspended in Buffer B, dispensed, and stored at −80° C. until it was used.
Composition of Buffer B was 110 mM KCl, 10 mM NaCl, 5 mM KH2PO4, 1 mM DDT, and 50 mM HEPES-KOH (pH 7.2) (containing a cocktail of protease inhibitors [0.1 mM PMSF, 10 μM leupeptin, 10 μM pepstatin A, 10 μM E-64] and 2 mM MgCl2).
An IP3-induced Ca^2+ release activity of cerebellar microsome was determined by using fura-2 (Molecular Probe) as a fluorescent Ca^2+ indicator. Specifically, excitations upon addition of IP3 at two wavelengths (340 nm and 380 nm) were measured with fluorescence spectrophotometer CAF110 (Nihon Bunko) to see the change in the fluorescent intensity ratio (F340/F380) at 500 nm.
IP3-induced Ca^2+ release from the cerebellar microsome is generally EC50=100–200 nM IP3. Cerebellar microsome (100 μg) was mixed with 500 μl of a release buffer (Buffer B containing 1 mM MgCl2, 2 μM fura-2, 1 mM DTT, 10 mM creatine phosphate, 40 U/ml creatine kinase, 1 μg/ml oligomycin, and the cocktail of protease inhibitors) in a measurement cuvette with a stirrer bar. The following reaction was conducted at 30° C. while constantly stirring with the stirrer bar.
One mM of ATP was added to the mixture in the cuvette to activate Ca^2+ pumping (Ca^2+-ATPase), whereby Ca^2+ was incorporated into the inner space of microsome (Ca^2+ loading). Ca^2+ loading was confirmed by monitoring until the decrease of fura-2 fluorescent level became constant. The change in the fura-2 fluorescent intensity ratio was measured (F340/F380) at a subthreshold level.
The effect of IP3 sponge on inhibiting IP3-induced Ca^2+ release activity of cerebellar microsome was analyzed as follows. After the addition of ATP, the curve of fura-2 fluorescent intensity was monitored until the decrease became constant. Then, various concentrations of IP3 sponges were added. After 1 min., 50 nM to 1 μM of IP3 was added to the reaction mixture to observe the change of fura-2 fluorescent intensity induced by the IP3.
The IP3 sponge concentration dependency was determined as follows. High affinity polypeptide G224 of 3.125, 6.25, 12.5, 25, 50, 100, 200 μg/ml were added to the reaction mixture, respectively. After about 1 min., 100 nM of IP3 was added to measure the Ca^2+ release activity induced by the IP3. The concentration dependency of low affinity polypeptide G224-m30 was determined by adding G224-m30 of 200, 400 and 500 μg/ml. After about 1 min., 100 nM of IP3 was added to measure the Ca^2+ release activity induced by the IP3. In addition, G224-m30 of 500 μg/ml was also added, and after about 1 min., 50 nM of IP3 was added to measure the Ca^2+ release activity induced by the IP3.

[5] = [3H]IP3-binding activity, Scatchard plot analysis; remark: listed apart in the source
[6] = purified IP3 receptor, Maeda et al. 1990
[7] = purified protein, [3H]IP3 binding

- Bmax ([2]; purified protein): 3.0 pmol/μg purified protein
- Kd [2, 7]: 330 nM
- Kd ([2]; purified protein, [3H]IP3 binding, listed as G224-m30): ~330 nM
- IC50 of IP3-binding inhibition [3]: 100 µg/mL
- effect on inhibiting Ca2+ release versus control ([4]; 500 μg/ml, 50 nM IP3): Little difference
- inhibiting effect on Ca2+ release ([4]; 500 μg/ml, 100 nM IP3): no inhibiting effect
Substance: G224m30: G224 introduced with K508A mutation; low affinity IP3-binding polypeptide

- Kd [2, 7]: 7.6 nM
- Kd ([5]; 3 μg T604 soluble fraction, 9.6 nM [3H]IP3, cold IP3 competition (FIG. 2C)): 45 ± 7.6 nM
- Kd ([5]; crude cell lysate / E. coli soluble fraction, 9.6 nM [3H]IP3 competed with cold IP3): 45 nM
Substance: T604: polypeptide of amino acids 1–604 (M-1 to K-604) of mouse Type-1 IP3 receptor
- Bmax ([5]; E. coli soluble fraction): 690 pmol/mg protein and 690±64 pmol/mg protein

- activity, times that of the original T604 ([2]; relative to T604): about 3 times
Substance: N4-T604: protein obtained by deleting amino acids 1–223 of T604; amino acids 224–604

- binding to (1,4,5)IP3 and (2,4,5)IP3 [2]: binds well
- Kd ([2]; purified GST fusion protein (FIG. 3A, 3B)): 0.083 nM
- Bmax ([2]; purified protein): 1.6 pmol/μg purified protein
- affinity, times higher than that of polypeptide T734 ([2]; relative to T734): 500 times
- IC50 of IP3-binding inhibition [3]: about 10 μg/ml
- concentration required for 50% inhibition of IP3-induced Ca2+ release ([4]; 100 nM IP3 (FIG. 7)): about 20 μg/ml
- inhibition of IP3-induced Ca2+ release ([4]; 100 μg/ml, 100 nM IP3 (FIG. 6F)): almost completely inhibited
Substance: G224: fusion polypeptide of GST and amino acids 224–604 (M-224 to K-604) of IP3 receptor

The next lines start with the substance.

Substance: Amino acid region 224–579: 356-residue polypeptide almost corresponding to the IP3-binding core region
- Kd ([1]; Yoshikawa et al. 1996): 2.3 nM

Substance: Purified IP3R: purified natural IP3 receptor, Maeda et al. 1990
- Bmax [1, 6]: 2.1 pmol/μg purified protein
- Kd [1, 6]: 83 nM

Substance: T734: N-terminal 734 amino acids of mouse Type-1 IP3 receptor (mIP3R1)
- Bmax ([1]; E. coli soluble fraction, Yoshikawa et al. 1996): 46 pmol/mg protein
- Kd ([1]; crude cell lysates, Yoshikawa et al. 1996): 50 ± 2.4 nM
